# Assay results: US20230075856A1, “CYCLIC SULFAMIDE COMPOUNDS FOR TREATMENT OF HBV” (Assembly Biosciences, Inc., priority 2018, published 2023)
# pEC50: −log10 of the molar value. Read-outs that look alike come from different tables or passages of the source.
# System: HBV viral load production from HepAD38 cells
# Test: Viral production from HepAD38 cells: viral load in supernatant by qPCR of the HBV core sequence
# Assay type: cell-based
# Conditions: 5 days incubation, qPCR of supernatant HBV DNA vs DMSO control, read-out: viral load lowering EC50 (Activity)
# How it was run: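 HepAD38 cells seeded at 50,000/well in tetracycline-free medium with 2% FBS, treated with compounds (final top concentration 10 μM) for 5 days at 37 °C. Supernatant HBV DNA quantified by TaqMan qPCR of core sequence against HBV DNA standards, relative to DMSO controls; EC50 by four-parameter logistic fit.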
# [1] = Hepatitis B virus, HePAD38, 120 h
Compound,pEC50,pEC50 [1]
"CN1C(C(=O)Nc2ccc(F)c(Cl)c2)CC(C(=O)NCc2cnc(-c3ccc(OCCCN4CCSCC4)cc3)s2)NS1(=O)=O (single isomer, unassigned) [Compound 925-ISOMER-B, N3-(3-chloro-4-fluoro-phenyl)-2-methyl-1,1-dioxo-N5-[[2-[4-(3-thiomorpholinopropoxy)phenyl]thiazol-5-yl]methyl]-1,2,6-thiadiazinane-3,5-dicarboxamide]",5.00 to 7.00,–
"CN1C(C(=O)N(Cc2cnc(-c3cscn3)s2)c2ccc(F)c(Cl)c2)CC(C(N)=O)NS1(=O)=O (single isomer, unassigned) [Compound 929-ISOMER-A, N3-(3-chloro-4-fluoro-phenyl)-2-methyl-1,1-dioxo-N-[(2-thiazol-4-ylthiazol-5-yl)methyl]-1,2,6-thiadiazinane-3,5-dicarboxamide]",–,5.00 to 7.00
"CN1C(C(=O)Nc2ccc(F)c(Cl)c2)CC(C(=O)NCc2cnc(-c3cscn3)s2)NS1(=O)=O (single isomer, unassigned) [Compound 929-ISOMER-B, N3-(3-chloro-4-fluoro-phenyl)-2-methyl-1,1-dioxo-N5-[(2-thiazol-4-ylthiazol-5-yl)methyl]-1,2,6-thiadiazinane-3,5-dicarboxamide]",–,> 7.30
"CN1C(C(=O)Nc2ccc(F)c(Cl)c2)CC(C(=O)NCc2ncc(-c3ccccc3)s2)NS1(=O)=O (single isomer, unassigned) [Compound 931-ISOMER-A, N3-(3-chloro-4-fluoro-phenyl)-2-methyl-1,1-dioxo-N5-[(5-phenylthiazol-2-yl)methyl]-1,2,6-thiadiazinane-3,5-dicarboxamide]",–,5.00 to 7.00
"CN1C(C(=O)Nc2ccc(F)c(Cl)c2)CC(C(=O)NCc2ncc(-c3ccccc3)s2)NS1(=O)=O (single isomer, unassigned) [Compound 931-ISOMER-B, N3-(3-chloro-4-fluoro-phenyl)-2-methyl-1,1-dioxo-N5-[(5-phenylthiazol-2-yl)methyl]-1,2,6-thiadiazinane-3,5-dicarboxamide]",> 7.30,–
"COc1ccc(-c2cnc(CNC(=O)C3CC(C(=O)Nc4ccc(F)c(Cl)c4)N(C)S(=O)(=O)N3)s2)cc1 (single isomer, unassigned) [Compound 932-ISOMER-A, N3-(3-chloro-4-fluoro-phenyl)-N5-[[5-(4-methoxyphenyl)thiazol-2-yl]methyl]-2-methyl-1,1-dioxo-1,2,6-thiadiazinane-3,5-dicarboxamide]",–,5.00 to 7.00
"COc1ccc(-c2cnc(CNC(=O)C3CC(C(=O)Nc4ccc(F)c(Cl)c4)N(C)S(=O)(=O)N3)s2)cc1 (single isomer, unassigned) [Compound 932-ISOMER-B, N3-(3-chloro-4-fluoro-phenyl)-N5-[[5-(4-methoxyphenyl)thiazol-2-yl]methyl]-2-methyl-1,1-dioxo-1,2,6-thiadiazinane-3,5-dicarboxamide]",> 7.30,–
"CN(C)CC(C)(C)COc1ccc(-c2ncc(CNC(=O)C3CC(C(=O)Nc4ccc(F)c(Cl)c4)N(C)S(=O)(=O)N3)s2)cc1 (single isomer, unassigned) [Compound 943-ISOMER-A, N3-(3-chloro-4-fluoro-phenyl)-N5-[[2-[4-[3-(dimethylamino)-2,2-dimethyl-propoxy]phenyl]thiazol-5-yl]methyl]-2-methyl-1,1-dioxo-1,2,6-thiadiazinane-3,5-dicarboxamide]",–,> 7.30
"CN(C)CC(C)(C)COc1ccc(-c2ncc(CNC(=O)C3CC(C(=O)Nc4ccc(F)c(Cl)c4)N(C)S(=O)(=O)N3)s2)cc1 (single isomer, unassigned) [Compound 943-ISOMER-B, N3-(3-chloro-4-fluoro-phenyl)-N5-[[2-[4-[3-(dimethylamino)-2,2-dimethyl-propoxy]phenyl]thiazol-5-yl]methyl]-2methyl-1,1-dioxo-1,2,6-thiadiazinane-3,5-dicarboxamide]",5.00 to 7.00,–
"CN1C(C(=O)Nc2ccc(F)c(Cl)c2)CC(C(=O)NCc2cnc(-c3ccc(C#CCN4CCCCC4)cc3)s2)NS1(=O)=O (single isomer, unassigned) [Compound 946-ISOMER-A, N3-(3-chloro-4-fluoro-phenyl)-2-methyl-1,1-dioxo-N5-[[2-[4-[3-(1-piperidyl)prop-1-ynyl]phenyl]thiazol-5-yl]methyl]-1,2,6-thiadiazinane-3,5-dicarboxamide]",–,> 7.30
"CN1C(C(=O)Nc2ccc(F)c(Cl)c2)CC(C(=O)NCc2cnc(-c3ccc(C#CCN4CCCCC4)cc3)s2)NS1(=O)=O (single isomer, unassigned) [Compound 946-ISOMER-B, N3-(3-chloro-4-fluoro-phenyl)-2-methyl-1,1-dioxo-N5-[[2-[4-[3-(1-piperidyl)prop-1-ynyl]phenyl]thiazol-5-yl]methyl]-1,2,6-thiadiazinane-3,5-dicarboxamide]",5.00 to 7.00,–
"CN1C(C(=O)Nc2ccc(F)c(Cl)c2)CC(C(=O)NC2CCCc3nc(-c4ccc(OCCN5CCCCC5)cc4)sc32)NS1(=O)=O (single isomer, unassigned) [Compound 948-ISOMER-A]",–,> 7.30
"CN1C(C(=O)Nc2ccc(F)c(Cl)c2)CC(C(=O)NC2CCCc3nc(-c4ccc(OCCN5CCCCC5)cc4)sc32)NS1(=O)=O (single isomer, unassigned) [Compound 948-ISOMER-B, N3-(3-chloro-4-fluoro-phenyl)-2-methyl-1,1-dioxo-N5-[2-[4-[2-(1-piperidyl)ethoxy]phenyl]-4,5,6,7-tetrahydro-1,3-benzothiazol-7-yl]-1,2,6-thiadiazinane-3,5-dicarboxamide]",5.00 to 7.00,–
"CN1C(C(=O)Nc2ccc(F)c(Cl)c2)CC(C(=O)NCc2csc(-c3ccc(OCCN4CCCCC4)cc3)n2)NS1(=O)=O (single isomer, unassigned) [Compound 957-ISOMER-A, N3-(3-chloro-4-fluoro-phenyl)-2-methyl-1,1-dioxo-N5-[[2-[4-[2-(1-piperidyl)ethoxy]phenyl]thiazol-4-yl]methyl]-1,2,6-thiadiazinane-3,5-dicarboxamide]",–,> 7.30
"CN1C(C(=O)Nc2ccc(F)c(Cl)c2)CC(C(=O)NCc2csc(-c3ccc(OCCN4CCCCC4)cc3)n2)NS1(=O)=O (single isomer, unassigned) [Compound 957-ISOMER-B, N3-(3-chloro-4-fluoro-phenyl)-2-methyl-1,1-dioxo-N5-[[2-[4-[2-(1-piperidyl)ethoxy]phenyl]thiazol-4-yl]methyl]-1,2,6-thiadiazinane-3,5-dicarboxamide]",5.00 to 7.00,–
"CN1C(C(=O)Nc2ccc(F)c(Cl)c2)CC(C(=O)NC2CCN(c3cc(Cl)ccn3)CC2)NS1(=O)=O (single isomer, unassigned) [Compound 974-ISOMER-A, N3-(3-chloro-4-fluoro-phenyl)-N5-[1-(4-chloro-2-pyridyl)-4-piperidyl]-2-methyl-1,1-dioxo-1,2,6-thiadiazinane-3,5-dicarboxamide]",–,> 7.30
"CN1C(C(=O)Nc2ccc(F)c(Cl)c2)CC(C(=O)NC2CCN(c3cc(Cl)ccn3)CC2)NS1(=O)=O (single isomer, unassigned) [Compound 974-ISOMER-B, N3-(3-chloro-4-fluoro-phenyl)-N5-[1-(4-chloro-2-pyridyl)-4-piperidyl]-2-methyl-1,1-dioxo-1,2,6-thiadiazinane-3,5-dicarboxamide]",7.00 to 7.30,–
"CN1C(C(=O)Nc2ccc(F)c(Cl)c2)CC(C(=O)NC2CCN(c3cc(CN4CCCCC4)ccn3)CC2)NS1(=O)=O (single isomer, unassigned) [Compound 975-ISOMER-A, N3-(3-chloro-4-fluoro-phenyl)-2-methyl-1,1-dioxo-N5-[1-[4-(1-piperidylmethyl)-2-pyridyl]-4-piperidyl]-1,2,6-thiadiazinane-3,5-dicarboxamide]",–,> 7.30
"CN1CCC(Oc2ccc(-c3ncc(CNC(=O)C4CC(C(=O)Nc5ccc(F)c(Cl)c5)N(C)S(=O)(=O)N4)s3)cc2)CC1 (single isomer, unassigned) [Compound 979-ISOMER-A, N3-(3-chloro-4-fluoro-phenyl)-2-methyl-N5-[[2-[4-[(1-methyl-4-piperidyl)oxy]phenyl]thiazol-5-yl]methyl]-1,1-dioxo-1,2,6-thiadiazinane-3,5-dicarboxamide]",–,5.00 to 7.00
"COc1ccccc1-c1ncc(CNC(=O)C2CC(C(=O)Nc3ccc(F)c(Cl)c3)N(C)S(=O)(=O)N2)s1 (single isomer, unassigned) [Compound 987-ISOMER-A, N3-(3-chloro-4-fluoro-phenyl)-N5-[[2-(2-methoxyphenyl)thiazol-5-yl]methyl]-2-methyl-1,1-dioxo-1,2,6-thiadiazinane-3,5-dicarboxamide]",–,> 7.30
"COc1ccccc1-c1ncc(CNC(=O)C2CC(C(=O)Nc3ccc(F)c(Cl)c3)N(C)S(=O)(=O)N2)s1 (single isomer, unassigned) [Compound 987-ISOMER-B, N3-(3-chloro-4-fluoro-phenyl)-N5-[[2-(2-methoxyphenyl)thiazol-5-yl]methyl]-2-methyl-1,1-dioxo-1,2,6-thiadiazinane-3,5-dicarboxamide]",5.00 to 7.00,–
"CN1C(C(=O)Nc2ccc(F)c(Cl)c2)CC(C(=O)NCc2ccn(-c3ccccc3)n2)NS1(=O)=O (single isomer, unassigned) [Compound 991-ISOMER-A, N3-(3-chloro-4-fluoro-phenyl)-2-methyl-1,1-dioxo-N5-[(1-phenylpyrazol-3-yl)methyl]-1,2,6-thiadiazinane-3,5-dicarboxamide]",–,5.00 to 7.00
"C[C@@H](NC(=O)C1CC(C(=O)Nc2ccc(F)c(Cl)c2)N(C)S(=O)(=O)N1)c1ccc(F)cc1 (single isomer, unassigned; isomer-a) [493-R-ISOMER-A]",> 7.30,–
"CN1C(C(=O)Nc2ccc(F)c(Cl)c2)CC(C(=O)NCc2cc(-c3ccccc3Cl)no2)NS1(=O)=O (single isomer, unassigned; isomer-a) [1025-ISOMER-A, N3-(3-chloro-4-fluro-phenyl)-N5-[[3-(2-chlorophenyl)isoxazol-5-yl]methyl]-2-methyl-1,1-dioxo-1,2,6-thiadiazinane-3,5-dicarboxamide]",> 7.30,–
